We go through 9 compounds from PubChem BioAssay (NCI).

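Five concentrations, 48 hours, 96-well plates. GI50 marks 50% less growth. TGI marks complete inhibition of growth.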

Some test systems named below: CCRF-CEM leukemia; IGROV1 ovarian; M14 melanoma; MOLT-4 leukemia; OVCAR-5 ovarian; PC-3 prostate; SF-539 CNS; SK-MEL-28 melanoma; UACC-62 melanoma; EKVX NSCLC.
Holding throughout (test): NCI tumour cell line growth inhibition, 48 h

In the case of `OCc1ccc(N(Cc2ccc(F)cc2)CC2CCC2)cc1Cl`, the GI50 in the assay on CCRF-CEM leukemia is 15.1 µM; with IGROV1 ovarian, 0.755 µM; with M14 melanoma it was 15.2 µM; in the assay with MOLT-4 leukemia, 13.7 µM; with OVCAR-5 ovarian, 1.13 µM; with PC-3 prostate, 11.8 µM. The results for the GI50 in the assay with SF-539 CNS, in the assay with SK-MEL-28 melanoma and with UACC-62 melanoma were 16.3 µM, 14.8 µM and 1.57 µM, respectively. The TGI in the assay with CCRF-CEM leukemia worked out at 36 µM; in the assay on IGROV1 ovarian it was 4.05 µM; with M14 melanoma, 31.2 µM; with MOLT-4 leukemia, 33.4 µM; in the assay with OVCAR-5 ovarian, 4.25 µM; in the assay with PC-3 prostate, 24.8 µM. Further, the values for the TGI in the assay on SF-539 CNS, with SK-MEL-28 melanoma and in the assay with UACC-62 melanoma were 30.4 µM, 28.3 µM and 8.34 µM, respectively.

Consider `O=C1NC(=N[C@H](CO)c2ccccc2)S/C1=C\c1ccc2ncccc2c1`, for which the GI50 in the assay with CCRF-CEM leukemia was 4.63 µM; with IGROV1 ovarian, 4.44 µM; in the assay with M14 melanoma, 7.46 µM; with MOLT-4 leukemia, 4.47 µM; in the assay with OVCAR-5 ovarian, 4.96 µM; with PC-3 prostate, 4.07 µM. The GI50 was 2.66 µM in the assay with SF-539 CNS, 7.96 µM with SK-MEL-28 melanoma and 5.74 µM in the assay with UACC-62 melanoma. In addition, the TGI in the assay with CCRF-CEM leukemia was 16.7 µM; with IGROV1 ovarian, more than 17.1 µM; with M14 melanoma, more than 25 µM; with MOLT-4 leukemia, 14.8 µM; with OVCAR-5 ovarian, 20.1 µM; with PC-3 prostate, more than 25 µM. For the same compound, the values for the TGI in the assay with SF-539 CNS, in the assay with SK-MEL-28 melanoma and with UACC-62 melanoma were 7.67 µM, more than 25 µM and 24.7 µM, respectively.

Regarding `C=C1C(=O)C2(C)OC2(C)C1C(=O)O` (stereo not drawn), the TGI with CCRF-CEM leukemia, with EKVX NSCLC, with IGROV1 ovarian, in the assay on M14 melanoma, in the assay with OVCAR-5 ovarian and in the assay on PC-3 prostate was more than 100 µM throughout. The TGI with SF-539 CNS, with SK-MEL-28 melanoma and in the assay on UACC-62 melanoma was more than 100 µM throughout.

With `O=C(Nc1ccccc1)Nc1ccc(Cl)c(Cl)c1`, the GI50 is 4.87 µM with CCRF-CEM leukemia; 2.93 µM in the assay on EKVX NSCLC; 3.63 µM in the assay on IGROV1 ovarian; 4.64 µM in the assay with M14 melanoma; 3.58 µM in the assay on MOLT-4 leukemia; 8.85 µM with OVCAR-5 ovarian. For the same compound, the GI50 with PC-3 prostate is 2.41 µM; with SK-MEL-28 melanoma it was 4.55 µM; in the assay on UACC-62 melanoma it was 2.66 µM. The TGI in the assay on CCRF-CEM leukemia is more than 100 µM; in the assay on EKVX NSCLC, more than 100 µM; in the assay with IGROV1 ovarian, more than 100 µM; in the assay with M14 melanoma it was more than 100 µM; in the assay with MOLT-4 leukemia it was 86.8 µM; in the assay on OVCAR-5 ovarian, more than 100 µM. Also, the TGI in the assay with PC-3 prostate was 9.72 µM; in the assay with SK-MEL-28 melanoma it was more than 100 µM; in the assay on UACC-62 melanoma, more than 100 µM.

`Fc1ccc(C2C3CCOc4c(ccc5ccccc45)C3=NN2c2ccccc2)cc1` (stereo not drawn): the GI50 was 16.6 µM in the assay with CCRF-CEM leukemia; more than 87.4 µM with EKVX NSCLC; more than 100 µM with IGROV1 ovarian; more than 100 µM in the assay on M14 melanoma; 30.7 µM in the assay on MOLT-4 leukemia; more than 100 µM with OVCAR-5 ovarian. The values for the GI50 with PC-3 prostate, in the assay with SK-MEL-28 melanoma and in the assay with UACC-62 melanoma were more than 54.9 µM, more than 88.7 µM and more than 66.2 µM, respectively. The TGI was more than 74.4 µM with CCRF-CEM leukemia; more than 100 µM in the assay on EKVX NSCLC; more than 100 µM with IGROV1 ovarian; more than 100 µM in the assay on M14 melanoma; more than 100 µM in the assay on MOLT-4 leukemia; more than 100 µM in the assay on OVCAR-5 ovarian. The TGI in the assay on PC-3 prostate, with SK-MEL-28 melanoma and with UACC-62 melanoma was more than 100 µM each time.

Consider `Cc1c(O)c(Br)c(C)c(O)c1Br` (tested in a mixture with another compound), for which the TGI with CCRF-CEM leukemia came to 0.807 µM; with IGROV1 ovarian it was 20.5 µM; in the assay on M14 melanoma, 3.1 µM; in the assay with MOLT-4 leukemia it was 3.09 µM; in the assay on OVCAR-5 ovarian, 34.9 µM; in the assay with PC-3 prostate, 4.23 µM. Further, the values for the TGI in the assay with SF-539 CNS, in the assay with SK-MEL-28 melanoma and in the assay with UACC-62 melanoma were 10 µM, 3.56 µM and 10.8 µM, respectively.

With `Cc1[nH]n(-c2cccc(Cl)c2)c(=O)c1/C=C1\C=c2ccccc2=CC1=O`, the GI50 is 97.5 µM in the assay on CCRF-CEM leukemia; more than 100 µM in the assay on EKVX NSCLC; 27.1 µM in the assay on IGROV1 ovarian; more than 100 µM with M14 melanoma; more than 100 µM in the assay with MOLT-4 leukemia; more than 100 µM in the assay on OVCAR-5 ovarian. The GI50 in the assay on PC-3 prostate is more than 100 µM; in the assay on UACC-62 melanoma, 39.8 µM. Further, the TGI in the assay with CCRF-CEM leukemia, in the assay on EKVX NSCLC, in the assay on IGROV1 ovarian, in the assay on M14 melanoma, in the assay on MOLT-4 leukemia and in the assay on OVCAR-5 ovarian was more than 100 µM in each case. The TGI in the assay with PC-3 prostate, with SF-539 CNS and with UACC-62 melanoma was more than 100 µM throughout.

Regarding `CC1(C)OC(=O)C(=Cc2ccc([N+](=O)[O-])s2)C(=O)O1`, the TGI amounted to 88.6 µM in the assay with CCRF-CEM leukemia; 31.8 µM in the assay with EKVX NSCLC; 26.5 µM in the assay with M14 melanoma; 24.6 µM with MOLT-4 leukemia; 31.2 µM in the assay on OVCAR-5 ovarian; 38.1 µM in the assay on PC-3 prostate. Also, the TGI with SF-539 CNS amounted to 29.4 µM; in the assay on SK-MEL-28 melanoma it was 34.6 µM.

On to `O=C1NC(=O)C(c2c[nH]c3ccccc23)=C1c1ccccc1`, for which the GI50 in the assay with CCRF-CEM leukemia, in the assay on IGROV1 ovarian, in the assay with M14 melanoma, in the assay with MOLT-4 leukemia, with OVCAR-5 ovarian and with PC-3 prostate was more than 25 µM in each case. Also, the GI50 with SF-539 CNS, with SK-MEL-28 melanoma and in the assay on UACC-62 melanoma was more than 25 µM throughout. In addition, the TGI with CCRF-CEM leukemia, in the assay with IGROV1 ovarian, in the assay on M14 melanoma, in the assay on MOLT-4 leukemia, in the assay on OVCAR-5 ovarian and in the assay on PC-3 prostate was more than 25 µM throughout. Further, the TGI in the assay with SF-539 CNS, in the assay on SK-MEL-28 melanoma and in the assay with UACC-62 melanoma was more than 25 µM each time.
